Values after ≈ are worked out from the molar mass of the structure shown. Active and inactive are the calls of the source. The rule behind the calls is not given here.
Columns and labels:
[1] = system: Vero; assay: Cytotoxicity against african green monkey Vero cells after 72 hrs by MTS assay; conditions: Chlorocebus sabaeus, Vero, 72 h
[2] = system: Trypanosoma cruzi; assay: Antitrypanosomal activity against Trypanosoma cruzi tulahuen C4 trypomastigotes infected in african green monkey Vero cells assessed as CPRG cleavage after 120 hrs by microplate reader; format: functional, organism-based
[3] = Selectivity index, ratio of IC50 for african green monkey Vero cells to IC50 for Trypanosoma cruzi tulahuen C4; conditions: Vero cells
[4] = system: Mycobacterium tuberculosis; assay: Antitubercular activity against Mycobacterium tuberculosis H37Rv ATCC 27294 after 7 days by microplate alamar blue assay; format: functional; conditions: H37Rv ATCC 27294, 168 h
[5] = Selectivity index, ratio of IC50 for african green monkey Vero cells to MIC for Mycobacterium tuberculosis H37Rv ATCC 27294 by microplate alamar blue assay; format: functional
[6] = Cytotoxicity against BALB/c mouse macrophages after 48 hrs by trypan blue dye exclusion method; format: cell-based; conditions: Macrophage
[7] = system: Leishmania amazonensis; assay: Antileishmanial activity against Leishmania amazonensis MHOM/BR/76/LTB-012 amastigotes infected BALB/c mouse macrophages after 48 hrs by MTT assay; format: functional, organism-based; conditions: MHOM/BR/76/LTB-012, 48 h
[8] = Selectivity index, ratio of IC50 for BALB/c mouse macrophages to IC50 for Leishmania amazonensis MHOM/BR/76/LTB-012
[9] = Cytotoxicity against BALB mouse 3T3 cells; format: cell-based; conditions: BALB 3T3 cells
[10] = system: NCI-H460; assay: Cytotoxicity against human NCI-H460 cells; format: functional
[11] = system: DU-145; assay: Cytotoxicity against human DU145 cells; format: functional
[12] = system: MCF7; assay: Cytotoxicity against human MCF7 cells; format: functional
[13] = system: M14; assay: Cytotoxicity against human M14 cells; format: functional
[14] = system: HT-29; assay: Cytotoxicity against human HT-29 cells; format: functional
[15] = system: K562; assay: Cytotoxicity against human K562 cells; format: functional
[16] = system: Leishmania amazonensis; assay: Antileishmanial activity against Leishmania amazonensis Lma CL1 amastigotes infected BALB/c mouse macrophages after 48 hrs by Giemsa staining method; format: functional, organism-based; conditions: Lma CL1, 48 h
[17] = system: Leishmania braziliensis; assay: Antileishmanial activity against Leishmania braziliensis MHOM/PE/PER006 promastigote infected BALB/c mouse macrophages after 48 hrs by Giemsa staining method; format: functional, organism-based; conditions: MHOM/PE/PER006, 48 h
[18] = system: Leishmania peruviana; assay: Antileishmanial activity against Leishmania peruviana MHOM/PE/LCA08 promastigote infected BALB/c mouse macrophages after 48 hrs by Giemsa staining method; format: functional, organism-based; conditions: MHOM/PE/LCA08, 48 h
[19] = system: Leishmania amazonensis; assay: (§1) Antileishmanial activity against Leishmania amazonensis LV79 MPRO/BR/72/M1841 amastigotes infected BALB/c mouse assessed as lesion diameter at 5 mg/kg/day, intralesionally administered after 1 week post infection 3 times per week for 6 weeks measured on week 4 relative to control; format: functional
[20] = system: Leishmania amazonensis; assay: (§2) Antileishmanial activity against Leishmania amazonensis LV79 MPRO/BR/72/M1841 amastigotes infected BALB/c mouse assessed as lesion diameter at 5 mg/kg/day, intralesionally administered after 1 week post infection 3 times per week for 6 weeks measured on week 7 relative to control; format: functional
[21] = system: Leishmania amazonensis; assay: as §1, with “assessed as reduction of parasite burden at 5” for “assessed as lesion diameter at 5”, “week 4 by fluorescence method relative to” for “week 4 relative to”; format: functional; set-up: scale not given: the % may be the effect or the level left
[22] = system: Leishmania amazonensis; assay: as §2, with “assessed as reduction of parasite burden at 5” for “assessed as lesion diameter at 5”, “week 7 by fluorescence method relative to” for “week 7 relative to”; format: functional; set-up: scale not given: the % may be the effect or the level left
[23] = system: Trypanosoma cruzi; assay: Antitrypanosomal activity against Trypanosoma cruzi tulahuen C4 trypomastigotes infected mouse assessed as decrease in parasite replication at 20 mg/kg/day, ip on days 6 to 11 days post infection after 6 days; format: functional, organism-based
[24] = system: Mycobacterium tuberculosis; assay: Antitubercular activity against Mycobacterium tuberculosis H37Rv ATCC 27294 after 7 days by low oxygen recovery assay; format: functional; conditions: H37Rv ATCC 27294, 168 h
[25] = Selectivity index, ratio of IC50 for african green monkey Vero cells to MIC for Mycobacterium tuberculosis H37Rv ATCC 27294 by low oxygen recovery assay; format: functional

Row | SMILES | IC50 [1] | IC50 [2] | selectivity ratio [3] | MIC [4] | Ratio IC50 [5] | IC50 [6] | IC50 [7] | Ratio IC50 [8] | GI50 [9] | GI50 [10] | GI50 [11] | GI50 [12] | GI50 [13] | GI50 [14] | GI50 [15] | further results
1 | Clc1ccccc1/C=N/Nc1ncnc2sc3c(c12)CCCC3 | 14.6 µM | 21.3 µM | 0.7 | 124 µM (≈ 42.6 µg/mL) | 0.7 | 11.2 µM | 2.2 µM | 5 | 88.1 µM | 62.9 µM | 77.8 µM | 22 µM | > 170 µM | 56.5 µM | 19.8 µM | –
2 | CCc1ccc(/C=N/Nc2ncnc3sc4c(c23)CCCC4)cc1 | – | > 25 µM | – | > 250 µM | – | 151 µM | 15.7 µM | 9.6 | 36.1 µM | 28.2 µM | 58.8 µM | 18.5 µM | 190 µM | 32.2 µM | 11.1 µM | IC50 [16]: 8.2 µM; IC50 [17]: 10.5 µM; IC50 [18]: 9.5 µM; Activity [19]: 3 mm; Activity [20]: 4.7 mm; Activity [21]: 30%; Activity [22]: 2%
3 | Brc1ccc(/C=N/Nc2ncnc3sc4c(c23)CCCC4)cc1 | 15.5 µM | 20.3 µM | 0.8 | > 250 µM | – | 7.8 µM | 0.9 µM | 8.8 | 17.4 µM | 10.5 µM | 14.6 µM | 5.9 µM | 33.6 µM | 12.4 µM | 5.7 µM | IC50 [16]: > 2 µM; IC50 [17]: > 2 µM; IC50 [18]: > 2 µM
4 | C(=C\c1ccccc1)/C=N/Nc1ncnc2sc3c(c12)CCCC3 | 20.9 µM | 1.4 µM | 14.6 | 35 µM (≈ 11.7 µg/mL) | 0.1 | 1.7 µM | 16.6 µM | 0.1 | 4.4 µM | 2.1 µM | 5.4 µM | 2.1 µM | 4.6 µM | 8.2 µM | 1.6 µM | Activity [23]: inactive
5 | Oc1ccc(/C=N/Nc2ncnc3sc4c(c23)CCCC4)cc1 | 12.3 µM | 11.3 µM | 1.1 | 72.1 µM (≈ 23.4 µg/mL) | 0.6 | 178 µM | 41.6 µM | 4.3 | 6.6 µM | 14.9 µM | 20.8 µM | 17 µM | 17.2 µM | 19.5 µM | 15.8 µM | –
6 | Brc1ccccc1/C=N/Nc1ncnc2sc3c(c12)CCCC3 | 7.7 µM | 9.3 µM | 0.8 | 24.3 µM (≈ 9.41 µg/mL) | 0.8 | 7.4 µM | 1.3 µM | 5.8 | 11.2 µM | 7.7 µM | 7.1 µM | 4.5 µM | 15.4 µM | 8 µM | 3 µM | –
7 | C(=N\Nc1ncnc2sc3c(c12)CCCC3)/c1ccco1 | 10.1 µM | 16.1 µM | 0.6 | 39.9 µM (≈ 11.9 µg/mL) | 1 | 2.4 µM | 4.2 µM | 0.6 | 7.8 µM | 7.1 µM | 15.6 µM | 1 µM | 11.1 µM | 8.5 µM | 4 µM | MIC [24]: 9.7 µM (≈ 2.89 µg/mL); Ratio IC50 [25]: 4.2
8 | C/C(=N/Nc1ncnc2sc3c(c12)CCCC3)c1ccccc1 | 12.4 µM | 13.7 µM | 0.9 | 72.6 µM (≈ 23.4 µg/mL) | 1.4 | 159 µM | 28.5 µM | 5.6 | 5.4 µM | 15.9 µM | 16.1 µM | 16.5 µM | 19.8 µM | 21.9 µM | 10.9 µM | MIC [24]: 8.7 µM (≈ 2.81 µg/mL); Ratio IC50 [25]: 11.5
